# Measured values reported in patent publication US20070087330A1, “Viral deconstruction through capsid assembly in vitro” (priority 2002, published 2007).
# Key:
# [1] = test system: HBV core polypeptides / HBV capsids; assay type: biochemical
# Procedure: Following translation of HBV core transcript for 30 min, the translation product was diluted in 0.01% Nil(kol buffer and centrifuged on a 10-50% sucrose gradient. The supernatant was removed and the pellet was resuspended in buffer and divided into equal aliquots. To one aliquots was added apyrase (A, top) while the control was incubated in buffe alone (A, bottom). Incubations were done at 25° C. for 90 min. Reaction mixtures were then centrifuged on standard 10-50% sucrose gradients. Fractions were analyzed by SDS-PAGE and autoradiography. In a separate experiment (B) the pellet was isolated and resuspended in identical fashion. To one aliquot was added wheat germ extract as well as unlabeled energy mix. (B, top); to the second aliquot was added wheat germ extract and apyrase (B, botton).
# To address this, pellet material was isolated by fractionating the products of a 30-min translation of HBV core on a sucrose gradient and resuspending the pellet in buffer. The resuspended pellet was divided into equal aliquots and treated either with aphyase or with buffer for 90 min at 24° C.
# Treatment of the isolated pellet with apyrase and wheat germ extract (FIG. 23B, bottom).
# [2] = test system: HIV capsid assembly (Gag Pr55); test: Cell-free HIV capsid assembly in wheat germ extract, analysed by velocity sedimentation; assay type: biochemical
# Procedure: Translation of the transcription products was carried out in wheat germ extract containing ^35S methionine (ICN Pharmaceuticals, Costa Mesa, Calif.). Wheat germ was obtained from General Mills. Wheat germ extract was prepared as described by Erickson and Blobel (1983) supra with indicated modifications. Three grams of wheat germ were placed in a mortar and ground in 10 ml homogenization buffer (100 mM K-acetate, 1 mM Mg-acetate, 2 mM CaC12, 40 mM HEPES buffer, pH 7.5 (Sigma Chemicals, St. Louis, Mo.), 4 mM dithiothreitol) to a thick paste. The homogenate was scraped into a chilled centrifuge tube and centrifuged at 4° C. for 10 min at 23,000×g. The resulting supernatant was centrifuged again under these conditions to provide an S23 wheat germ extract. Improved assembly was obtained when the S23 wheat germ extract was further subjected to ultracentrifugation at 50,000 rpm in the TLA 100 rotor (100,000×g) (Beckman Instruments, Palo Alto, Calif.) for 15 min at 4° C. and the supernatant used for in vitro translation. […] This supernatant is referred to herein as a “high speed wheat germ extract supernatant”. Reactions were performed as previously described (Lingappa, J. R., et al., J. Cell. Biol. (1984) 125:99-111), except for modifications noted below.
# A 25 μl wheat germ transcription/translation reaction mixture contained: 5 μl Gag transcript, 5 μl ^35—S Energy Mix 5× stock (Sigma Chemical Co., St. Louis, Mo.), 2.5 μl Compensating Buffer (Sigma Chemical Co.), 1.0 μl 40 mM MgAcetate (Sigma Chemical Co.), 2.0 μl 125 μM Myristoyl CoA (made up in 20 mM Tris Acetate, pH 7.6; Sigma Chemical Co.), 3.75 μl 20 mM Tris Acetate buffer, […] (U.S. Biochemicals; Cleveland, Ohio), 0.25 μl creatine kinase (4 mg/ml stock in 50% glycerol, 10 mM Tris Acetate; Boehringer Mannheim, Indianapolis, Ind.), 0.25 μl bovine tRNA (10 mg/ml stock; Sigma Chemical Co.), and 0.25 μl RNAse Inhibitor (20 units/50; Promega). […]
# The purpose of this experiment was to use the cell-free system for detecting HIV assembly intermediates that would be otherwise difficult or impossible to detect. A continuously labeled cell-free reaction was analyzed by velocity sedimentation. […] Upon completion of the cell-free reaction, the products were diluted into 1% NP40 sample buffer on ice, and were analyzed by velocity sedimentation on 13 ml 15-60% sucrose gradients. Fractions were collected from the top of each gradient, and the amount of radiolabeled Pr55 protein in each fraction was determined and expressed as percent of total Pr55 protein present in the reaction. The calculated positions of 10S, 80S, 150S, 500S, and 750S complexes are indicated with markers above the figures (see FIG. 3A). […]
# HBV core polypeptides / HBV capsids, sequence (P03146 whole entry): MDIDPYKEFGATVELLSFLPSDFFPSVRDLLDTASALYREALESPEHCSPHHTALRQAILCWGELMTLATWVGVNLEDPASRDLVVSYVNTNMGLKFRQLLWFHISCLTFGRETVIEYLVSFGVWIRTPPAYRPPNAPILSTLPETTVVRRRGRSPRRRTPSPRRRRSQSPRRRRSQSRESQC
compound,measurement,setting,value
O=C(O)CN(CCN(CC(=O)O)CC(=O)O)CC(=O)O [EDTA],"Effect on relative distribution of labeled core polypeptides in top, middle and pellet regions","[1]; 10 mM, translation products treated",had no effect
CC[C@H]1CN2CCc3cc(OC)c(OC)cc3[C@@H]2C[C@@H]1C[C@H]1NCCc2cc(OC)c(OC)cc21 [emetine],Effect on results of treating the isolated pellet with energy substrates or apyrase,[1]; protein synthesis inhibitor added,did not affect
apyrase,A (material in fractions of assembly intermediate complex A),"[2]; radiolabeled Pr55 in 10S complex A, apyrase added post-translationally, detergent cotranslationally",2851
same,B/C (material in fractions of assembly intermediate complexes B and C),"[2]; radiolabeled Pr55 in 80S/150S complexes B and C, apyrase added post-translationally, detergent cotranslationally",5999
same,Final Capsid (material in fractions of the completed capsid),"[2]; radiolabeled Pr55 in 750S completed capsid position, apyrase added post-translationally, detergent cotranslationally",133
same,Effect of treatment on assembly intermediates,"[2]; velocity sedimentation, compared with the untreated reaction",accumulation of additional material in complexes B and C
same,Effect of treating the isolated pellet material,"[1]; pellet of a 30-min translation, 90 min at 24° C.",release of completed capsids from the pellet
